Experimental data: US20240415753A1, “DEODORANT COMPOSITIONS COMPRISING CARBOXYLIC ACIDS” (The Procter & Gamble Company, priority 2023, published 2024)

How the values were obtained:
[1] = Surface tension of carboxylic acid at 2 wt % in water (Wilhelmy plate); assay type: physicochemical; conditions: 2 wt % solution of the carboxylic acid in water; average of 3 samples
Experimental: Surface tension was measured using surface tension measurement, described herein. […] Surface tension of a sample is calculated as the average of the last 5 measured values. […] The average of the last 5 values is used to calculate surface tension of a sample. Surface Tension is measured by ASTM […]-20 Method C-Surface Tension by […] plate. For accurate measurement, the Surface Tension measurement should be allowed to equilibrate over the course of at least 1 minute, or at least 2 minutes, or longer depending on the sample. Properly equilibrated surface tension measurement is evaluated by not seeing a change in the surface tension measurement across multiple data points at the end of the measurement time period. The sample is run for a longer period of time if the surface tension measurement is continuing to change across multiple data points at the end of the measurement time period. […] The average of the last 5 values collected is used to calculate surface tension of a sample.

[2] = tested on: mock community of five underarm species (3 Staphylococcus and 2 Corynebacterium); assay: MIC of various carboxylic acids (Optical Density MIC 95); assay type: cell-based; conditions: pH 5, Tryptic Soy Broth, initial concentration 1000 ppm, ~24 hours at 37° C., OD 600 nm
Source text: The following MIC (Minimum Inhibitory Concentration) was done on various carboxylic acids. The MIC is the lowest concentration of active compound at which no growth of the microorganism is observed macroscopically. […] Tryptic Soy Broth is used in the measurements below as a standard diluent for testing MIC. Initial concentration is the highest concentration tested in this experiment. […] The results shown in Table 7 below indicate that carboxylic acids have the ability to inhibit bacteria growth. […] The MIC or minimum inhibitory concentration test determines antimicrobial activity of a material against a specific bacteria. The most commonly employed methods are the tube dilution method and agar dilution method. Test products that are not clear or precipitate the growth media are tested by agar dilution method which is similar to the tube dilution method except dilutions are plated on agar. The tube dilution test is the standard method for determining levels of microbial resistance to an antimicrobial agent. Serial dilutions of the test agent are made in a liquid microbial growth medium which is inoculated with a standardized number of organisms and incubated for a prescribed time. The lowest concentration (highest dilution) of test agent preventing appearance of turbidity (growth) is considered to be the minimal/minimum inhibitory concentration (MIC). At this dilution the test agent is bacteriostatic. […] This measurement is referred to as optical density.

[3] = Surface tension of solvents at 50 wt % in water (Wilhelmy plate); assay type: physicochemical; conditions: solvent at 50 wt % in water; average of 3 samples
Source text: In addition, carboxylic acids may be used in deodorant compositions that are desired to be clear. For the composition to appear clear, the refractive index of the polar and nonpolar phases may not vary too much. For example, for a clear appearance of a polar in nonpolar emulsion, a significant amount of material with high refractive index, water soluble solvents or emollients (for example glycols, polyethers, diols, glycerin, or mixtures thereof), can be added to the polar phase to match the refractive index of water (1.333) to silicone (1.40). […] Surface tension is measured for mixtures of solvents at 50 wt % in water. Surface tension was measured using the surface tension measurement, as described in the Test Method section herein. Measurement time period was 1 minute with 30 values measured over the measurement time period. Surface tension of a sample is calculated as the average of the last 5 measured values. Each reported value is an average of 3 samples measured.
Surface Tension is measured by ASTM D1331-20 Method C-Surface Tension by Willhelmy plate. […] Properly equilibrated surface tension measurement is evaluated by not seeing a change in the surface tension measurement across multiple data points at the end of the measurement time period. […] A minimum of 30 measured values are collected during the measurement time period. […]

Row | SMILES | Surface Tension when measured at 2 wt % in Water [1] [mN/m] | MIC [2] [µg/mL] | Surface Tension when measured at 50 wt % in Water [3] [mN/m]
1 | O=C1O[C@H]([C@@H](O)CO)C(O)=C1O [Ascorbic Acid] | 72.4 |  | 
2 | O=C(O)CC(O)(CC(=O)O)C(=O)O [Citric Acid] | 71.3 |  | 
3 | O=C(O)/C=C/C(=O)O [Fumaric Acid] |  | 250 | 
4 | OCC(O)CO [Glycerin] |  |  | 68.6
5 | O=C(O)CO [Glycolic Acid] | 71.1 |  | 
6 | CC(O)C(=O)O (centres unmarked) [Lactic Acid] | 63.7 | 1000 | 
7 | O=C(O)/C=C\C(=O)O [Maleic Acid] |  | 1000 | 
8 | O=C(O)CC(O)C(=O)O (centres unmarked) [Malic Acid] | 71.8 | 500 | 
9 | O=C(O)C(O)c1ccccc1 (centres unmarked) [Mandelic Acid] | 63.7 | 1000 | 
10 | CC(O)CO (centres unmarked) [Propylene Glycol (PG), Propylene Glycol] |  |  | 44.6
11 | O=C(O)c1ccccc1O [Salicylic Acid] |  | 125 | 
12 | O=C(O)CCC(=O)O [Succinic Acid] | 69.8 | 1000 | 
13 | O=C(O)C(O)C(O)C(=O)O (centres unmarked) [Tartaric Acid] |  | 250 | 
